This is an account of results in patent US8664276B2, “Stilbene analogs and methods of treating cancer” (University of Kentucky Research Foundation, priority 2011, dated 2014).

One data set relates to LS174 tumor xenografts. In words: LS174 tumor xenograft in nude mice. Format: in vivo. How it is done: Tumor xenograft in nude mice. LS174 or HT29 colon cancer cells (2×10^6) were injected subcutaneously into both flanks of 6-8 week C57BL/6J athymic nude mice as described in Zhang et al., Mol Cell Biol 2006, 26, 2055-2064. Compound 4r or 4dd was dissolved in corn oil or PEG400. The mice were treated with 20 mg/kg/day of 4r by ip injection or gavage (50 μl/mouse). Control mice were treated with same volume of corn oil or PEG400. The body weight and tumor growth were analyzed twice weekly for one month. Tumor size was measured using digital caliper. The tumor volume was calculated by the formula: V=½LW^2 (mm^3).
In this example, the effects of the stilbene analogs of the present disclosure on CRC cells growth was analyzed. […] To test the effects of compound 4r on tumor growth in vivo, LS174 cells were injected subcutaneously into the flanks of athymic nude mice, which had been randomized into two groups. One group of mice was treated with compound 4r (20 mg/kg/day) dissolved in corn oil by intraperitoneal (ip) injection. The control mice were treated with the same volume of corn oil (50 μL) by ip injection. The mice were weighted and tumors measured twice weekly.

For the next data set, the system named is β-catenin. In words: β-catenin localization by immunofluorescence in LS174 cells. Format: cell-based. The following applies: 10 μM, 24 h, versus DMSO. How it is done: Immunofluorescence. Cells grown on cover glass were fixed by 4% paraformaldehyde for 20 min at room temperature. The cells were permeabilized with PBS containing 0.3% (w/v) Triton X-100 and blocked by 5% normal goat serum in PBS for 30 min. Anti-β-catenin antibody (1:300, Sigma, St. Louis, Mo.) was diluted in blocking solution and incubated with cells overnight. The cells were washed 3 times with PBS and further incubated with Alexa-488-labeled anti-rabbit IgG (1:500) diluted in PBS for 40 min. The cover glasses were washed, mounted on glass slides, viewed and photographed with an Olympus FW1000 confocal microscope. Cells grown on cover glass were treated with fluorescent compounds for 2 h, 6 h, 12 h and 24 h respectively. Treated cells were fixed by 4% paraformaldehyde for 20 min at room temperature. Then cells were washed 3 times with PBS and mounted on glass slides, viewed under the fluorescence of 405 nm-wavelength and photographed with an Olympus FW1000 confocal microscope.
Nevertheless, compound 4s lends itself well to a mechanistic study of the site of action of these compounds. LS174 cells were treated with 10 μM of compound 4s for 2 h, 6 h, 12 h, and 24 h. The cells were fixed and analyzed by confocal fluorescence microscopy. […] The cells were fixed and β-catenin localization analyzed by immunofluorescence. […]

The target in data set [1] is T1, MAT2A (Homo sapiens, UniProt P31153). In words: In-vitro SAM synthesis by MAT2A (LC-MS/MS). Format: biochemical. Details: GST (N); made in house. The protocol: (§1) SAM and SAH analysis by LC-MS/MS. The LC-MS/MS system consisted of two Varian ProStar 210 LC Pumps coupled with a Varian 1200L triple quadrupole mass spectrometer. The separation was performed on a Hypercarb column (50 mm×2.1 mm, […], Thermo Scientific #35003-052130). Gradient elution started with 98% solution A (0.1% formic acid in water), followed by an increase to 38% solution B (0.1% formic acid in acetonitrile) in 8 min. The column was than flushed with 90% B for 5 min and regenerated with 98% A for another 8 min. The flow rate was 0.25 mL/min. Between the 3rd and 11th min, the eluent was switched to the ion source of the mass spectrometer. The precursor product transitions for SAM (m/z 399→250), SAH (m/z 385→250) and [d-4]-SAH (m/z 389→136) were monitored. The optimized ion source parameters were: Capillary Voltage: 32 V for both SAM and SAH, Collision energy: 9 V and 7V for SAM and SAH, respectively, Needle voltage: 5000 V and the Shield voltage: 600V. Nitrogen was used as the drying gas at a temperature of 300° C. and the interface heater was set to 50° C. The drying gas and nebulizing gas were set to 20 and 50 psi, respectively.
SAM synthesis. […] purified MAT2A was incubated with 1 mM L-methionine and 1 mM ATP in […] reaction solution (50 mM Tris.Cl, 50 mM KCl, 10 mM MgCl2) for 5 min at 25° C. […] SAM was analyzed by LC-MS/MS. […]

For data set [2], the target named is T1, MAT2A. In words: Cell based SAM and SAH analysis in LS174 colon cancer cells (LC-MS/MS). Also on record: endogenous in cells; host or cells: LS174T. The following applies: 10 μM of 4r versus 30 μM of resveratrol. The protocol: as §1
Cell based SAM analysis. […] 5 ul of supernatants were analyzed by LC-MS/MS using a modified method based on a previous publication (see Krijt et al., J Chromatogr B Analyt Technol Biomed Life Sci 877, 2061-6, (2009)). […]

Regarding `CN(C)c1ccc(/C=C/c2c(F)cccc2F)cc1` [4r, (E)-4-(2,6-Difluorostyryl)-N,N-dimethylaniline], the “body weight versus control mice” value in the data set with LS174 tumor xenografts (20 mg/kg/day ip in corn oil, within one month) is “no significant difference”. Further, the “growth of tumor xenografts” value in the data set on LS174 tumor xenografts (LS174, 20 mg/kg/day ip in corn oil) is “significantly inhibited”. The “nuclear β-catenin levels” value in the data set with β-catenin was “decreased”. For the same compound, at MAT2A [1], the “MAT2A activity in SAM synthesis” value is listed as “inhibit MAT2A activity”. The “MAT2A activity (SAM levels) in LS174 cells versus resveratrol” value at MAT2A [2] is listed as “more significantly than 30 μM of resveratrol”.
